Laboratory results: ChEMBL document CHEMBL2057111, “(+)-Pinoresinol is a putative hypoglycemic agent in defatted sesame (Sesamum indicum) seeds though inhibiting α-glucosidase” (Bioorg Med Chem Lett, 2012)
Active and inactive are the calls of the source. No cut-off for these calls is given here.

Legend:
[1] = target: Lysosomal alpha-glucosidase (Rattus norvegicus) (UniProt Q6P7A9); assay: Inhibition of rat intestinal maltase using maltose as substrate at 10 mg/ml preincubated for 10 mins before substrate addition by glucose oxidase method
Lysosomal alpha-glucosidase (Rattus norvegicus), sequence (Q6P7A9 whole entry): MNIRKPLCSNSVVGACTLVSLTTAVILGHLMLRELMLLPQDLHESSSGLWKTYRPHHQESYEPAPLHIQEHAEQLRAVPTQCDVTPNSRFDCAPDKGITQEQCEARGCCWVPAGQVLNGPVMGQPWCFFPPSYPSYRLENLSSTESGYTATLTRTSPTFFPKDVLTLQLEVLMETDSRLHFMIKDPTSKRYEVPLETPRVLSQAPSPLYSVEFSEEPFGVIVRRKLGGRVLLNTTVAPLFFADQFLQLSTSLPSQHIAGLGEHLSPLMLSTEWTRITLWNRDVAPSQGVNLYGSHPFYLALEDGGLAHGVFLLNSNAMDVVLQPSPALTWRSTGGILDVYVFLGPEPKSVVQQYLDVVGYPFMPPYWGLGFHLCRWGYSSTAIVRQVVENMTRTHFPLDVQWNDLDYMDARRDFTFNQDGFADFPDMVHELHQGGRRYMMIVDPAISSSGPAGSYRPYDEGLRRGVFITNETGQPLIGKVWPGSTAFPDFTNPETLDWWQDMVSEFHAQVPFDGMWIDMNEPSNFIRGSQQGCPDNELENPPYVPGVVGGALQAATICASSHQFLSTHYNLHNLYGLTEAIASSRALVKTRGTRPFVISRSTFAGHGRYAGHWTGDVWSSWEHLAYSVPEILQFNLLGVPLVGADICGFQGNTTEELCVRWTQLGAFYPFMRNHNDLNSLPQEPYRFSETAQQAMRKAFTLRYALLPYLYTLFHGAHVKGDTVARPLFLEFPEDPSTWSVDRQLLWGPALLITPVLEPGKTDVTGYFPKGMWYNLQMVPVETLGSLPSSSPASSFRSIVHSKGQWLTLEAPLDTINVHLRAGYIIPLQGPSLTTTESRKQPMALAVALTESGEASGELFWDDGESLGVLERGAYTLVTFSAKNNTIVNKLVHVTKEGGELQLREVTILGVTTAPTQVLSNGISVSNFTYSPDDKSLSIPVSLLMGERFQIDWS

[2] = target: Sucrase-isomaltase, intestinal (Rattus norvegicus) (UniProt P23739); assay: Inhibition of rat intestinal sucrase using sucrose as substrate at 10 mg/ml preincubated for 10 mins before substrate addition by glucose oxidase method
Sucrase-isomaltase, intestinal (Rattus norvegicus), sequence (P23739 1-1013 limits assumed): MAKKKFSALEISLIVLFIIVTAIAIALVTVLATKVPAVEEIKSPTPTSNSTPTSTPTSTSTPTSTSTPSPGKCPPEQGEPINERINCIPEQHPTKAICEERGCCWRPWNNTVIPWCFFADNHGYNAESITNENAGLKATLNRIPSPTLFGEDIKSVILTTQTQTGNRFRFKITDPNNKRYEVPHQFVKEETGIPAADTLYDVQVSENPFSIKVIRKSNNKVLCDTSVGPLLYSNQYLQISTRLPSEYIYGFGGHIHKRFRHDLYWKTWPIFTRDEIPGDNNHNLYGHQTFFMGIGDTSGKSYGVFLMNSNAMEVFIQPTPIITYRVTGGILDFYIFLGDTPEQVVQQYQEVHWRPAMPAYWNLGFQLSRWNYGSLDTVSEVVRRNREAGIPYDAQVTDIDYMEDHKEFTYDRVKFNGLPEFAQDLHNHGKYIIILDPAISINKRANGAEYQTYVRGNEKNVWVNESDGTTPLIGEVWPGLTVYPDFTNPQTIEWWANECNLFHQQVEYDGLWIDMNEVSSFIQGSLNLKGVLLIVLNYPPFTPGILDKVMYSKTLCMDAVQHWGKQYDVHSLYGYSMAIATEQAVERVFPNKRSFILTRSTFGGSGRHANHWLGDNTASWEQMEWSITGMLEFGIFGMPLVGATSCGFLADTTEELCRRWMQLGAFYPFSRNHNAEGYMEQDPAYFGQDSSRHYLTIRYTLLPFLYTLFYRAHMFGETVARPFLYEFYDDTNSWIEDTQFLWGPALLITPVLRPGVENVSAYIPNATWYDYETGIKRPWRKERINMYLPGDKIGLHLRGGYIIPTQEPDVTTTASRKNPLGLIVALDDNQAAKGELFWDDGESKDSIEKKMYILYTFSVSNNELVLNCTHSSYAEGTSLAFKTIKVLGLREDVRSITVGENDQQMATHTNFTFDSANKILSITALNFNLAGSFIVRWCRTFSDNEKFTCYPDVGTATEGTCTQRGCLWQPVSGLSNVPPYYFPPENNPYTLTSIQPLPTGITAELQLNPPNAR
Sucrase-isomaltase, intestinal (Rattus norvegicus), sequence (P23739 1014-1841 limits assumed): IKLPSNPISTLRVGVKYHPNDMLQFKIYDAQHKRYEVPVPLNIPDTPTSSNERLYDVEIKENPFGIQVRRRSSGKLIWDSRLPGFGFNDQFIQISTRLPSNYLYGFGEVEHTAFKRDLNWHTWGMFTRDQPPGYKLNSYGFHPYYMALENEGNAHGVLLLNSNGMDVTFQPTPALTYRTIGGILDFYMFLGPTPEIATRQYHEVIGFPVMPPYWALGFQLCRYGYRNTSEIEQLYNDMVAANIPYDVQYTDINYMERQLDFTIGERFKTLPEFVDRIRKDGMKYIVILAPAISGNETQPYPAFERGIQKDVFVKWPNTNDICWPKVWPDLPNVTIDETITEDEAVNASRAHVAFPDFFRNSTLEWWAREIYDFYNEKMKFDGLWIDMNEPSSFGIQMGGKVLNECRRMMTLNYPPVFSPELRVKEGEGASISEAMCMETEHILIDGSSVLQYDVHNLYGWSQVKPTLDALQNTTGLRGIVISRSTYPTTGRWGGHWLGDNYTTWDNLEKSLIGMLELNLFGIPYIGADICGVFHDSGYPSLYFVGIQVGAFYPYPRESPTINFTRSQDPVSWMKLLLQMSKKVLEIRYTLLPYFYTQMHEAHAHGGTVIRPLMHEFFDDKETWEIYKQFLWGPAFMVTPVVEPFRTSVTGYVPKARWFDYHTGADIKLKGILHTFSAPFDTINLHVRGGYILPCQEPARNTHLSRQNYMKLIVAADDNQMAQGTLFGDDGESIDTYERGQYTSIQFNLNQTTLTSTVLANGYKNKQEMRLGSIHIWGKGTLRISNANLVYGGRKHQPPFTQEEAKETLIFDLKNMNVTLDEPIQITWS

[3] = Inhibition of bakers yeast alpha-glucosidase using p-nitrophenyl-(alpha-D-glucopyranoside) as substrate preincubated for 10 mins before substrate addition by microplate reader; parameters: species or system Saccharomyces cerevisiae
[4] = target: Lysosomal alpha-glucosidase (Rattus norvegicus) (UniProt Q6P7A9); details: 0.1 to 1 mg/ml
Description: Non-competitive inhibition of rat intestinal maltase using maltose as substrate assessed as enzyme-substrate-inhibitor complex formation at 0.1 to 1 mg/ml by Lineweaver-Burk plot analysis

[5] = target: Lysosomal alpha-glucosidase (Rattus norvegicus) (UniProt Q6P7A9); details: 0.1 to 1 mg/ml; remark: listed apart in the source
[6] = target: Lysosomal alpha-glucosidase (Rattus norvegicus) (UniProt Q6P7A9); details: 0.1 to 1 mg/ml; remark: listed apart in the source
Description: Mixed type inhibition of rat intestinal maltase using maltose as substrate at 0.1 to 1 mg/ml

Saccharomyces cerevisiae = assay: Inhibition of bakers yeast alpha-glucosidase using p-nitrophenyl-(alpha-D-glucopyranoside) as substrate at 10 mg/ml preincubated for 10 mins before substrate addition by microplate reader

| SMILES | inhibition [1] [%] | inhibition [2] [%] | IC50 [3] [µM] | inhibition [4] | inhibition [5] | inhibition [6] | inhibition (Saccharomyces cerevisiae) [%] |
| --- | --- | --- | --- | --- | --- | --- | --- |
| c1cc2c(cc1O[C@H]1OC[C@H]3[C@@H]1CO[C@@H]3c1ccc3c(c1)OCO3)OCO2 [SESAMOLIN] | < 30 | < 30 | 200 |  |  |  |  |
| c1cc2c(cc1[C@H]1OC[C@H]3[C@@H]1CO[C@@H]3c1ccc3c(c1)OCO3)OCO2 [SESAMIN] | < 30 | < 30 | 450 |  |  |  |  |
| COc1cc([C@@H]2OC[C@@H]3[C@H]2CO[C@H]3c2ccc(O)c(OC)c2)ccc1O [(+)-PINORESINOL] |  | < 30 | 492 | Active | Active | Active |  |
| OC[C@H]1O[C@@H](Oc2cc3c(cc2[C@H]2OC[C@H]4[C@@H]2CO[C@@H]4c2ccc4c(c2)OCO4)OCO3)[C@H](O)[C@@H](O)[C@@H]1O | < 30 | < 30 |  |  |  |  | < 30 |
